The source of these data is ChEMBL document CHEMBL1155558, “New cyclic peptide and bisindolyl benzenoid metabolites from the sclerotia of Aspergillus sclerotiorum” (2000).

The subject of this assay is Spodoptera frugiperda. The experiment in a line: Activity against Spodoptera frugiperda assessed as reduction in feeding rate at 50 ug/cotton leaf disk. The class given is functional. The arrangement: scale not given: the % may be the effect or the level left.

Regarding `CN1C(=O)[C@H](CCC(N)=O)NC(=O)CNC(=O)[C@H](Cc2ccccc2)N(C)C(=O)[C@H](Cc2ccccc2)NC(=O)CNC(=O)[C@@H]1Cc1ccccc1` [SCLERAMIDE], the Activity is 27%.
